Patent US20260272964A1, “PENTAGALLOYL GLUCOSE DERIVED FROM SCHINUS PLANTS AND METHODS OF USE” (Emory University, priority 2020, published 2026)
Where “and” joins values, the source holds several entries; their conditions need not be identical. Equal values may be shown once. Read-outs that look alike come from different tables or passages of the source.

How the values were obtained:
[1] = system: Immortalized human keratinocyte cells (HaCaTs); test: Lactate dehydrogenase (LDH) cytotoxicity assay; type: cell-based; conditions: HaCaT IC50 over median IC50 for growth inhibition of A. baumannii
Text: (§1) Immortalized human keratinocyte cells (HaCaTs) were used in a lactate dehydrogenase (LDH) assay to assess cytotoxicity by PGG and its parents.

[2] = Lactate dehydrogenase (LDH) cytotoxicity assay; type: cell-based, human; conditions: human; HaCaT, LDH assay
Text: as §1

[3] = system: Candida glabrata; test: Growth inhibition of Candida species; type: cell-based
Procedure: (§2) The activity of PGG was tested for growth inhibition against two susceptible strains and 6 drug resistant strains from three Candida species (Table 2). […] The activity of PGG followed a dose-response curve against tested strains. Typically the strains tested had MICs less than 2 μg/mL. Candida glabrata (AR Bank #0335) yielded the highest MIC at 8 μg/mL.

[4] = system: Candida auris; test: Growth inhibition of Candida species; type: cell-based; conditions: Candidozyma auris
Procedure: as §2

[5] = system: Acinetobacter baumannii; test: Growth inhibition of Acinetobacter baumannii (CRAB and susceptible strains); type: cell-based; conditions: for IC50 / MIC: Acinetobacter baumannii
Procedure: A natural products library was screened for growth inhibition of CRAB. Lead extracts were then tested in serial dilution and nine extracts from seven species were chosen for further study based on activity. Extract 429, made from the leaves of Schinus terebinthifolia, underwent bioassay-guided fractionation for growth inhibition (FIG. 1).
A library of botanical extracts generated from plants was screened for growth inhibition of CRAB. […] Bioassay-guided fractionation lead to the isolation of pentagalloyl glucose (PGG), a bioactive gallotannin. […] Topical applications of PGG, such as wound rinses and dressings, are contemplated. […]

O=C(OC[C@H]1O[C@@H](OC(=O)c2cc(O)c(O)c(O)c2)[C@H](OC(=O)c2cc(O)c(O)c(O)c2)[C@@H](OC(=O)c2cc(O)c(O)c(O)c2)[C@@H]1OC(=O)c1cc(O)c(O)c(O)c1)c1cc(O)c(O)c(O)c1 [PGG, [(2R,3R,4S,5R,6S)-3,4,5,6-tetrakis[(3,4,5-trihydroxybenzoyl)oxy]oxan-2-yl]methyl 3,4,5-trihydroxybenzoate]
> 256 µg/mL: MIC ([5]; ATCC17978, strain ATCC17978, read-out: PGG MIC) | MIC ([5]; fourteen strains, read-out: MICs of fourteen of the A. baumannii strains tested) | MIC ([5]; strain AR Bank #0033, read-out: PGG MIC) | MIC ([5]; strain AR Bank #0036, read-out: PGG MIC) | MIC ([5]; strain AR Bank #0037, read-out: PGG MIC) | MIC ([5]; strain AR Bank #0070, read-out: PGG MIC) | MIC ([5]; strain AR Bank #0102, read-out: PGG MIC) | MIC ([5]; strain AR Bank #0274, read-out: PGG MIC) | MIC ([5]; strain AR Bank #0275, read-out: PGG MIC) | MIC ([5]; strain AR Bank #0277, read-out: PGG MIC) | MIC ([5]; strain AR Bank #0278, read-out: PGG MIC) | MIC ([5]; strain AR Bank #0282, read-out: PGG MIC) | MIC ([5]; strain AR Bank #0283, read-out: PGG MIC) | MIC ([5]; strain AR Bank #0295, read-out: PGG MIC) | MIC ([5]; strain Naval-81, read-out: PGG MIC)
85-95%: inhibition at which dose-response curves level off ([5]; A. baumannii, high concentrations)
most active constituent: activity in bioassay-guided fractionation for growth inhibition ([5]; CRAB, fractions of extract 429)
2 µg/mL: IC50 ([3]; Nakaseomyces glabratus, Table 3, strain AR Bank #0335)
32: therapeutic index [1]
8 µg/mL: MIC ([3]; Nakaseomyces glabratus, Table 3, strain AR Bank #0335, read-out: MIC) | IC50 ([5]; A. baumannii strains tested in this study, read-out: median IC50 for growth inhibition) | IC50 ([5]; ATCC17978, strain ATCC17978, read-out: PGG IC50) | IC50 ([5]; strain AR Bank #0033, read-out: PGG IC50) | IC50 ([5]; strain AR Bank #0035, read-out: PGG IC50) | IC50 ([5]; strain AR Bank #0037, read-out: PGG IC50) | IC50 ([5]; strain AR Bank #0045, read-out: PGG IC50) | IC50 ([5]; strain AR Bank #0102, read-out: PGG IC50) | IC50 ([5]; strain AR Bank #0273, read-out: PGG IC50) | IC50 ([5]; strain AR Bank #0275, read-out: PGG IC50) | IC50 ([5]; strain AR Bank #0277, read-out: PGG IC50) | IC50 ([5]; strain AR Bank #0278, read-out: PGG IC50) | IC50 ([5]; strain AR Bank #0281, read-out: PGG IC50) | IC50 ([5]; strain AR Bank #0283, read-out: PGG IC50) | IC50 ([5]; strain AR Bank #0284, read-out: PGG IC50) | IC50 ([5]; strain AR Bank #0295, read-out: PGG IC50) | IC50 ([5]; strain AR Bank #0299, read-out: PGG IC50) | IC50 ([5]; strain AR Bank #0300, read-out: PGG IC50) | IC50 ([5]; strain OIFC143, read-out: PGG IC50)
64 µg/mL: MIC ([5]; A. baumannii, strain not given, read-out: MIC) | IC50 ([5]; strain AR Bank #0274, read-out: PGG IC50) | MIC ([5]; strain AR Bank #0284, read-out: PGG MIC)
8 µg/mL to 64 µg/mL and 8.5 µM to 68 µM: IC50 ([5]; read-out: IC50s, range over strains, one susceptible and 23 drug resistant strains (19 CRAB))
8.0 µg/mL: MIC ([3]; Table 3, strain AR Bank #0335)
0.5 µg/mL: IC50 ([3]; Nakaseomyces glabratus, Table 2, strain AR Bank #0325) | IC50 ([3]; Nakaseomyces glabratus, Table 3, strain AR Bank #0325) | MIC ([3]; Nakaseomyces glabratus, Table 3, strain AR Bank #0326, read-out: MIC) | MIC ([4]; Table 2, strain AR Bank #0381)
128 µg/mL: MIC ([5]; strain AR Bank #0045, read-out: PGG MIC) | MIC ([5]; strain AR Bank #0273, read-out: PGG MIC) | MIC ([5]; strain AR Bank #0281, read-out: PGG MIC) | MIC ([5]; strain AR Bank #0299, read-out: PGG MIC) | MIC ([5]; strain OIFC143, read-out: PGG MIC)
identical growth inhibition: growth inhibition compared to PGG isolated from S. terebinthifolia ([5]; A. baumannii)
0.25 µg/mL: IC50 ([3]; Nakaseomyces glabratus, Table 3, strain AR Bank #0326) | MIC ([4]; Table 2, strain AR Bank #0390) | IC50 ([4]; Table 2, strain AR Bank #0381)
>256 µg/mL: PGG MIC ([5]; strain ATCC17978)
16 µg/mL: IC50 ([5]; strain AB5075, read-out: PGG IC50) | IC50 ([5]; strain AR Bank #0036, read-out: PGG IC50) | IC50 ([5]; strain AR Bank #0070, read-out: PGG IC50) | IC50 ([5]; strain AR Bank #0282, read-out: PGG IC50) | IC50 ([5]; strain NR-9667, read-out: PGG IC50) | IC50 ([5]; strain Naval-81, read-out: PGG IC50)
1 µg/mL: MIC ([3]; Nakaseomyces glabratus, Table 2, strain AR Bank #0325, read-out: MIC) | MIC ([3]; Nakaseomyces glabratus, Table 3, strain AR Bank #0325, read-out: MIC)
256 µg/mL: IC50 [2] | MIC ([5]; strain AB5075, read-out: PGG MIC) | MIC ([5]; strain AR Bank #0035, read-out: PGG MIC) | MIC ([5]; strain AR Bank #0300, read-out: PGG MIC) | MIC ([5]; strain NR-9667, read-out: PGG MIC)
